Laboratory results from PubChem BioAssay (NCI).
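Briefly, cells in 96-well plates were exposed to five compound concentrations for 48 h, and endpoints were estimated by linear interpolation. TGI: concentration producing complete growth inhibition.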

What was measured:
Experiment in all cases: NCI anticancer screen, dose series, 48 h
[1] = system: HOP-62 NSCLC
[2] = system: TK-10 renal
[3] = system: UACC-257 melanoma
[4] = system: SF-268 CNS
[5] = system: RPMI-8226 leukemia
[6] = system: DU-145 prostate
[7] = system: COLO 205 colon
[8] = system: SNB-75 CNS
[9] = system: BT-549 breast
[10] = system: MDA-MB-435
[11] = system: HCT-15 colon
[12] = system: HCC-2998 colon
[13] = system: SR leukemia
[14] = system: MDA-N
[15] = system: HOP-18 NSCLC
[16] = system: MOLT-4 leukemia
[17] = system: OVCAR-3 ovarian
[18] = system: OVCAR-5 ovarian
[19] = system: NCI/ADR-RES ovarian
[20] = system: PC-3 prostate
[21] = system: SK-MEL-5 melanoma
[22] = system: ACHN renal
[23] = system: HS 578T breast
[24] = system: IGROV1 ovarian
[25] = system: HL-60(TB) leukemia
[26] = system: SK-OV-3 ovarian
[27] = system: K-562 leukemia
[28] = system: CCRF-CEM leukemia
[29] = system: OVCAR-4 ovarian
[30] = system: MCF7 breast
[31] = system: MALME-3M melanoma
[32] = system: HT29 colon
[33] = system: NCI-H226 lung
[34] = system: UACC-62 melanoma
[35] = system: SNB-19 CNS
[36] = system: KM12 colon
[37] = system: HOP-92 NSCLC
[38] = system: NCI-H460 lung
[39] = system: U251 CNS
[40] = system: DLD-1 colon
[41] = system: M14 melanoma
[42] = system: 786-0 renal
[43] = system: SF-539 CNS
[44] = system: SW-620 colon
[45] = system: SK-MEL-28 melanoma
[46] = system: NCI-H522 lung
[47] = system: A498 renal
[48] = system: LXFL 529 NSCLC
[49] = system: MDA-MB-231 breast
[50] = system: EKVX NSCLC
[51] = system: SF-295 CNS
[52] = system: UO-31 renal
[53] = system: SN12C renal
[54] = system: HCT-116 colon
[55] = system: OVCAR-8 ovarian
[56] = system: M19-MEL melanoma
[57] = system: A549 NSCLC
[58] = system: NCI-H23 lung
[59] = system: KM20L2 colon
[60] = system: DMS 114 small cell lung
[61] = system: SNB-78 CNS
[62] = system: LOX IMVI melanoma
[63] = system: T-47D breast
[64] = system: DMS 273 small cell lung
[65] = system: SK-MEL-2 melanoma
[66] = system: CAKI-1 renal
[67] = system: RXF 393 renal

COc1ccc(/C=N/N/C(O)=c2/sc(=C(C#N)C#N)n(-c3ccccc3)c2=N)cc1
TGI [1]: > 94 µM | TGI [2]: > 100 µM | TGI [3]: > 100 µM | TGI [4]: > 100 µM | TGI [5]: > 100 µM | TGI [6]: > 100 µM | TGI [7]: > 100 µM | TGI [8]: 38.3 µM | TGI [9]: > 100 µM | TGI [10]: > 100 µM | TGI [11]: > 100 µM | TGI [12]: > 100 µM | TGI [13]: > 100 µM | TGI [14]: > 100 µM | TGI [15]: > 100 µM | TGI [16]: > 100 µM | TGI [17]: > 100 µM | TGI [18]: > 100 µM | TGI [19]: > 100 µM | TGI [20]: > 100 µM | TGI [21]: > 100 µM | TGI [22]: > 100 µM | TGI [23]: > 100 µM | TGI [24]: > 100 µM | TGI [25]: > 100 µM | TGI [26]: > 100 µM | TGI [27]: > 100 µM | TGI [28]: > 100 µM | TGI [29]: > 100 µM | TGI [30]: > 100 µM | TGI [31]: > 100 µM | TGI [32]: > 100 µM | TGI [33]: > 100 µM | TGI [34]: > 100 µM | TGI [35]: > 100 µM | TGI [36]: > 100 µM | TGI [37]: > 70.8 µM | TGI [38]: > 100 µM | TGI [39]: > 100 µM | TGI [40]: > 100 µM | TGI [41]: > 100 µM | TGI [42]: > 100 µM | TGI [43]: > 88.6 µM | TGI [44]: > 100 µM | TGI [45]: > 100 µM | TGI [46]: > 100 µM | TGI [47]: > 100 µM | TGI [48]: > 100 µM | TGI [49]: > 100 µM | TGI [50]: > 100 µM | TGI [51]: > 70.5 µM | TGI [52]: > 100 µM | TGI [53]: > 100 µM | TGI [54]: > 100 µM | TGI [55]: > 100 µM | TGI [56]: > 100 µM | TGI [57]: > 100 µM | TGI [58]: > 100 µM

Nc1ncnc2c1ncn2C1CC(O)C(CO)O1 (configuration not stated)
TGI [1]: > 100 µM | TGI [2]: > 100 µM | TGI [3]: > 100 µM | TGI [4]: > 100 µM | TGI [5]: > 100 µM | TGI [6]: > 100 µM | TGI [7]: > 100 µM | TGI [8]: > 100 µM | TGI [10]: > 100 µM | TGI [11]: > 100 µM | TGI [12]: > 100 µM | TGI [13]: > 100 µM | TGI [14]: > 100 µM | TGI [16]: > 100 µM | TGI [17]: > 100 µM | TGI [18]: > 100 µM | TGI [19]: > 100 µM | TGI [20]: > 100 µM | TGI [21]: > 100 µM | TGI [22]: > 100 µM | TGI [24]: > 100 µM | TGI [25]: > 100 µM | TGI [26]: > 100 µM | TGI [27]: > 100 µM | TGI [28]: > 100 µM | TGI [29]: > 100 µM | TGI [30]: > 100 µM | TGI [31]: > 100 µM | TGI [59]: > 100 µM | TGI [32]: > 100 µM | TGI [60]: > 100 µM | TGI [33]: > 100 µM | TGI [61]: > 100 µM | TGI [34]: > 100 µM | TGI [35]: > 100 µM | TGI [62]: > 100 µM | TGI [36]: > 100 µM | TGI [37]: > 100 µM | TGI [38]: > 100 µM | TGI [63]: > 100 µM | TGI [39]: > 100 µM | TGI [40]: > 100 µM | TGI [41]: > 100 µM | TGI [42]: > 100 µM | TGI [43]: > 100 µM | TGI [44]: > 100 µM | TGI [45]: > 100 µM | TGI [46]: > 100 µM | TGI [47]: > 100 µM | TGI [48]: > 100 µM | TGI [64]: > 100 µM | TGI [65]: > 100 µM | TGI [49]: > 100 µM | TGI [50]: > 100 µM | TGI [51]: > 100 µM | TGI [52]: > 100 µM | TGI [53]: > 100 µM | TGI [54]: > 100 µM | TGI [55]: > 100 µM | TGI [66]: > 100 µM | TGI [56]: > 100 µM | TGI [57]: > 100 µM | TGI [58]: > 100 µM | TGI [67]: > 100 µM
